Source: patent US20120283303A1, “USE OF N-AMINOIMIDAZOLE CYTOPROTECTIVE COMPOUNDS FOR TREATING CELL DEATH AND/OR GSK-3 MEDIATED DISEASES” (K.U.LEUVEN RESEARCH AND DEVELOPMENT, priority 2006, published 2012)
Values after ≈ are worked out from the molar mass of the structure shown.

What was measured:
p300 (H3 peptide) = biological target: T1, p300 (H3 peptide) (Homo sapiens, UniProt Q09472); experiment: Radiometric enzyme activity assay, p300 (H3 peptide); format: biochemical; settings: 5 μg/ml NR-818, 10 μM ATP
T1 construct: purchased Upstate Biotechnology
T1 sequence (Q09472 whole entry): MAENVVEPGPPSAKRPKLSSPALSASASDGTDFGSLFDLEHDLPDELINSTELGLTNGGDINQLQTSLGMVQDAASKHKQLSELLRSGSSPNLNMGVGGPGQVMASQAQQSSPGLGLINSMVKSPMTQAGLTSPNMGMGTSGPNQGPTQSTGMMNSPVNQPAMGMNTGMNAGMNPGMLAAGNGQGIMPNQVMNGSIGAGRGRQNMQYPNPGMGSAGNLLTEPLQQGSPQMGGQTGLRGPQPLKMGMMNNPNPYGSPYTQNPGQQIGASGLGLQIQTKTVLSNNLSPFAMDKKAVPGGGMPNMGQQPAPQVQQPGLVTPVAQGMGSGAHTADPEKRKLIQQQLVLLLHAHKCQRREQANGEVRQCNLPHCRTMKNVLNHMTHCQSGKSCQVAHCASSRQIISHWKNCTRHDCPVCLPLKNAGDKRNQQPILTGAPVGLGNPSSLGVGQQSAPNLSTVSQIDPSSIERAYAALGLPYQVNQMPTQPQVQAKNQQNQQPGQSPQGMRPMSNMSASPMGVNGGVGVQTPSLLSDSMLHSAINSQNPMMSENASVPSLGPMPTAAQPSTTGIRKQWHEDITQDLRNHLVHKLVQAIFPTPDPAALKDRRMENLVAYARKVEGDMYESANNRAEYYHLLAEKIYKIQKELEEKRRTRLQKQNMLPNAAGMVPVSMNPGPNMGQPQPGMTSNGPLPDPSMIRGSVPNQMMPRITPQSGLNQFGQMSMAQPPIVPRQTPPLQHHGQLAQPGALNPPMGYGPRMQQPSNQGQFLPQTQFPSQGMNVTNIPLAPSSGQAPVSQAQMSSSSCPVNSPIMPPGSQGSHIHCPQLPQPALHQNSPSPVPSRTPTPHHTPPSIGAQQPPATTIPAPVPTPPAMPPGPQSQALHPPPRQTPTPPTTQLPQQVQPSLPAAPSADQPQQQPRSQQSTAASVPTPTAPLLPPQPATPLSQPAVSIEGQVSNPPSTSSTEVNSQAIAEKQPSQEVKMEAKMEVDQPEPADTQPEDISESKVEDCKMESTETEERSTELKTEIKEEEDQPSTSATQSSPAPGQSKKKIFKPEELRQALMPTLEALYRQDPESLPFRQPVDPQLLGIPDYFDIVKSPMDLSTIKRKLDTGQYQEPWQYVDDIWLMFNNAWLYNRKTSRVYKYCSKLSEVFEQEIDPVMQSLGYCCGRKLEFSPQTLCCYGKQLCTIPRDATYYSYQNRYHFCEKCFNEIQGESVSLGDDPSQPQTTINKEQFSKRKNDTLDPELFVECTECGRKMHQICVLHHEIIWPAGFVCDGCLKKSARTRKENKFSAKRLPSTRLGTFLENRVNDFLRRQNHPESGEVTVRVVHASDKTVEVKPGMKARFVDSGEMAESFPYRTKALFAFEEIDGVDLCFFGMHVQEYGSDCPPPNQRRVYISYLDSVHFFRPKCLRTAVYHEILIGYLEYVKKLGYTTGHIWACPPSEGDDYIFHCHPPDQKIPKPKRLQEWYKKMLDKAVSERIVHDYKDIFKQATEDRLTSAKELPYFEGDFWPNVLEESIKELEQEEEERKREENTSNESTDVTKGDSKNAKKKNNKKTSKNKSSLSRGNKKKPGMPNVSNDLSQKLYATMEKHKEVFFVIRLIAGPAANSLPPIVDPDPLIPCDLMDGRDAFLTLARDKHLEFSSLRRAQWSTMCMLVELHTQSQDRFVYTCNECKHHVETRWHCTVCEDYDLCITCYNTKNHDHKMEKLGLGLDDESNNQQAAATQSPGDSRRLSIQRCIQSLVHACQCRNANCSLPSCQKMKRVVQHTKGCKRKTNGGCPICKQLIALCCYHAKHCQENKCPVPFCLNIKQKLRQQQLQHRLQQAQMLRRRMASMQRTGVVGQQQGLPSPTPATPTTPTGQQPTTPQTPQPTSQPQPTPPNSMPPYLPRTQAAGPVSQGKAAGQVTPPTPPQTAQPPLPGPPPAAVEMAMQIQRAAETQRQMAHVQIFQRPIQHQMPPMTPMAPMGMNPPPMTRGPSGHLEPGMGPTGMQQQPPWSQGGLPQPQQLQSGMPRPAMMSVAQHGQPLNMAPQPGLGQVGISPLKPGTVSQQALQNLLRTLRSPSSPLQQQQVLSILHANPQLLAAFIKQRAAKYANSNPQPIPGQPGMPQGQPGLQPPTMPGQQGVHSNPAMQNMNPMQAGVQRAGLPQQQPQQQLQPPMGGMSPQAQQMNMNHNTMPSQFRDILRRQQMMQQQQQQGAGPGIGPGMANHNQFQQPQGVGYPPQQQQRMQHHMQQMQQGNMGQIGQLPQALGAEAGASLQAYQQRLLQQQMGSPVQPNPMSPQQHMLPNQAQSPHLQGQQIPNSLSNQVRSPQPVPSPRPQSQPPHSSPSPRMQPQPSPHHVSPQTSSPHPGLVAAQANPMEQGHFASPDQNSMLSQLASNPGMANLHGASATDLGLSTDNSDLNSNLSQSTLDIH
Experimental: (§1) GSK-3 were assayed for their ability to phosphorylate the appropriate peptide/protein substrate in the presence of 5 μg/ml NR-818 and 10 μM ATP. Using the direct radiometric approach, kinase activities were determined and expressed as % activity compared to the untreated control (Upstate Biotechnology, Lake Placid, N.Y.). Activities are given as the mean of duplicate determinations relative to control incubations in which the inhibitor was substituted with DMSO. In the following table 1 providing results for NR818, the following abbreviations are used: • CDK, cyclin-dependent kinase; • CK, casein kinase; • eEF-2K, eukaryotic elongation factor-2 kinase; • JNK, c-Jun N-terminal kinase; • MAPK, mitogen-activated protein kinase; • PKC, protein kinase C; and • PI 3-kinase, phosphatidylinositol 3-kinase.

P/CAF (H3 peptide) = biological target: T2, P/CAF (H3 peptide) (Homo sapiens, UniProt Q92831); experiment: Radiometric enzyme activity assay, P/CAF (H3 peptide); format: biochemical; settings: 5 μg/ml NR-818, 10 μM ATP
T2 construct: purchased Upstate Biotechnology
T2 sequence (Q92831 whole entry): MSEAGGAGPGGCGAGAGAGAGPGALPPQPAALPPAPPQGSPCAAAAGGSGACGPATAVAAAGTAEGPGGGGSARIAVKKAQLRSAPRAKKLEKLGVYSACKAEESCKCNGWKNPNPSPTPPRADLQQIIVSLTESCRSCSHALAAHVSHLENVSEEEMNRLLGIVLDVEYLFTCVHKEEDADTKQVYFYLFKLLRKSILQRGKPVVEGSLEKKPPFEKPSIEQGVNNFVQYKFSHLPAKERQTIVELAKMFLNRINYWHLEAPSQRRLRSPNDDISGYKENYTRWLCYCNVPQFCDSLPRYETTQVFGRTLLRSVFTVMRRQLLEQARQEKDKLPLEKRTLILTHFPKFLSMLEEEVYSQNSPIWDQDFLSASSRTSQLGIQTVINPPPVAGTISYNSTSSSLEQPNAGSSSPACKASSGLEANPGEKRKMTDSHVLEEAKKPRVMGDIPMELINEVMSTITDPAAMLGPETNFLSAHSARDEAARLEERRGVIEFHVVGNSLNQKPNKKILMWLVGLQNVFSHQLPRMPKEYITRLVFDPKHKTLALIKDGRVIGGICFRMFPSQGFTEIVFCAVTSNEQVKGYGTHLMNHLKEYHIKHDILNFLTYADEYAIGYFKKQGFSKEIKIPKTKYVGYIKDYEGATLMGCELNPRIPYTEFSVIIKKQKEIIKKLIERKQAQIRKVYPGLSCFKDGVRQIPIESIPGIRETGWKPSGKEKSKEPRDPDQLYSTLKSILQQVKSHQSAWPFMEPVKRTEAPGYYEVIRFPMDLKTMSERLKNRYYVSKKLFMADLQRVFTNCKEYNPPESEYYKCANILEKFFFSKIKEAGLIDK
Experimental: as §1

P/CAF (H4 peptide) = biological target: T3, P/CAF (H4 peptide) (Homo sapiens, UniProt Q92831); experiment: Radiometric enzyme activity assay, P/CAF (H4 peptide); format: biochemical; settings: 5 μg/ml NR-818, 10 μM ATP
T3 construct: purchased Upstate Biotechnology
T3 sequence (Q92831 whole entry): as above
Experimental: as §1

M17-TAU P301L cells = experiment: TAU cytotoxicity (LDH leakage) in retinoic acid incubated M17-TAU P301L cells; format: cell-based, human; settings: Homo sapiens, 168 h, reduction of LDH activity of retinoic acid incubated M17-TAU P301L cells, 7 days; read-out: IC50
Text: An TAU expression plasmid was constructed by sub-cloning the cDNA of human TAU-P301L (encoding for TAU with proline 301 substituted by a leucine residue) into mammalian expression vector pcDNA3.1 resulting in plasmid pcDNA3.1-TAU P301L. Plasmids pcDNA3.1 and pcDNA3.1-TAU P301L were transfected to human neuroblastoma cells ([…]; ATCC No. CRL-2267) and independent clonal lines with the plasmids stably integrated into the genome were selected. […] Expression of the TAU P301L genes in the cell lines was confirmed by Western analysis.
In degenerated or dead cells, lactate dehydrogenase (LDH) is leaked out of the cells into the extracellular environment due to a loss of plasma-membrane integrity. This principle was used to determine cytotoxicity by quantifying the level of leaked LDH into the growth medium.
The detailed method for determining TAU cytotoxicity was as follows: From appropriate precultures of M17-3.1 and M17-TAU(P301L) cells were seeded at 2500 cells/cm2 in Optimem Reduced Serum without phenol red (Gibco, Cat. 31985-047) supplemented with 1% fetal calf serum, 1 mM sodium pyruvate, 1× non-essential amino acids, 500 μg/ml G418 0.5× antibiotic/antimycotic. After 3 hours of incubation at 37° C./5% CO2 1 volume of Optimem Reduced Serum (same as described above; except without fetal calf serum) supplemented with 2.5 μM retinoic acid (RA) was added. The cells were further incubated for 7 days. Subsequently, LDH activity was determined using Promega Cytotox 96 Non-Radioactive cytotoxicity assay, (Cat. G1780) according the supplier's instructions.
The M17-TAU P301L cell line made it possible to assess the ability of the compounds of this invention to counteract TAU cytotoxicity. […] Potency of the relevant compounds was determined by testing them at different concentrations ranging from non-effective (thus at a relatively low concentration) to an effective concentration for their ability to reduce LDH activity of retinoic acid incubated M17-TAU P301L cells.

motor neurons [1] = experiment: Basal survival of motor neurons in co-culture on glial feeder layer; format: cell-based, Wistar rats; settings: FIG. 1A
Experimental: Cell cultures: Primary motor neuron cultures were prepared from Wistar rats as follows. Spinal cords were dissected from E14 embryos and collected in Hanks' Balanced Salt Solution (HBSS; Gibco Invitrogen, Grand Island, N.Y). Ventral cords were minced and digested for 15 minutes at 37° C. in 0.05% trypsin in HBSS. The solution was then replaced with medium A (L15 (Sigma, St.-Louis, Mo.) supplemented with glucose, progesterone, insulin, putrescine, conalbumin, sodium selenite, penicillin, streptomycin and 2% horse serum) containing 0.4% BSA and 20 μg/ml DNase and the tissue was dissociated by trituration. The resulting single cell suspension was layered on a 6.8% (weight/volume in L15) optiprep cushion (one spinal cord per tube) and centrifuged at 500 g for 15 minutes. […] To remove debris, both fractions were resuspended in medium A and centrifuged for 20 minutes at 75 g on a 4% BSA cushion. For co-cultures, 30,000 motor neurons of the F1 fraction were seeded on a glial feeder layer. Glial feeder layers were prepared by plating F2 cells in 35 mm dishes. After 4 weeks in vitro, cell division was halted by exposure to 10^−5 M cytosine arabinoside. […]
Exposure experiments: After 1 day in culture NAIM was added to the culture medium at different concentrations. […] In the experiment in which the effect of fresh medium was evaluated, the culture medium was replaced in total every day. […]

motor neurons [2] = experiment: Basal survival of motor neurons in monoculture; format: cell-based, Wistar rats
Experimental: Cell cultures: Primary motor neuron cultures were prepared from Wistar rats as follows. Spinal cords were dissected from E14 embryos and collected in Hanks' Balanced Salt Solution (HBSS; Gibco Invitrogen, Grand Island, N.Y). Ventral cords were minced and digested for 15 minutes at 37° C. in 0.05% trypsin in HBSS. The solution was then replaced with medium A (L15 (Sigma, St.-Louis, Mo.) supplemented with glucose, progesterone, insulin, putrescine, conalbumin, sodium selenite, penicillin, streptomycin and 2% horse serum) containing 0.4% BSA and 20 μg/ml DNase and the tissue was dissociated by trituration. The resulting single cell suspension was layered on a 6.8% (weight/volume in L15) optiprep cushion (one spinal cord per tube) and centrifuged at 500 g for 15 minutes. […] To remove debris, both fractions were resuspended in medium A and centrifuged for 20 minutes at 75 g on a 4% BSA cushion. For co-cultures, 30,000 motor neurons of the F1 fraction were seeded on a glial feeder layer. Glial feeder layers were prepared by plating F2 cells in 35 mm dishes. After 4 weeks in vitro, cell division was halted by exposure to 10^−5 M cytosine arabinoside. For monocultures, 45,000 motor neurons were seeded in 35 mm dishes.
Immunocytochemistry: Cell cultures were washed and fixed in cooled paraformadehyde 4% for 30 minutes. After three washes, cells were incubated in blocking solution (10% normal serum in phosphate buffered saline (PBS)) for 1 hour. Monoclonal anti-SMI-32 ( 1/10,000, Sternberger Monoclonal Inc., Luthersville, Md.) and goat anti-GFAP ( 1/10,000, Dako, Denmark) were incubated overnight in 1% normal serum in PBS. Secondary antibodies used were goat anti-mouse IgG Alaxa555 ( 1/500, Molecular Probes, Eugene, Oreg.) and donkey anti-goat FITC ( 1/500, Jackson ImmunoResearch, West Grove, Pa.).
Exposure experiments: After 1 day in culture NAIM was added to the culture medium at different concentrations. All other compounds were also added after 24 hours in culture. When culture medium was replaced, only half of the medium was taken and replaced by fresh medium, in which all different compounds were substituted as to maintain the initial concentration. In the experiment in which the effect of fresh medium was evaluated, the culture medium was replaced in total every day. […]
In order to determine whether the effect of NAIM was mediated through the secretion of a soluble factor in the medium by the underlying astroglial feeder layer, we prepared monocultures in which only motor neurons were present. […] In order to determine whether the protective effect of the compound was dose-dependent, we conducted a dose-response study, in which cultures were treated with different concentrations of NAIM from day 1 off and cell survival was assessed on day 5.

## Cc1nc(S)n(Nc2cccc3ccccc23)c1-c1ccccc1 [HER/NR818, 4-Methyl-1-(naphthalen-1-ylamino)-5-phenyl-1,3-dihydro-imidazole-2-thione]
p300 (H3 peptide)
  Activity (% of control): 88 % of control
P/CAF (H3 peptide)
  Activity (% of control): 99 % of control
P/CAF (H4 peptide)
  Activity (% of control): 103 % of control
M17-TAU P301L cells
  IC50: 0.013 µg/mL (≈ 0.0392 µM)
Motor neurons [1]
  basal survival of motor neurons: significant increase in the basal survival
Motor neurons [2]; medium replaced every day, FIG. 3
  effect of daily medium replacement on protective properties: no effect on the protective properties
Motor neurons [2]; monoculture, FIG. 1B
  basal survival of motor neurons: significant increase of the basal survival
Motor neurons [2]; monoculture, survival on day 5, FIG. 4
  protective effect in combination with IL-2, IL-2-receptor blocking antibody or GM-CSF: not influenced by either of the added compounds
Motor neurons [2]; monocultures, dose-response, treated from day 1, survival assessed on day 5, FIG. 2
  optimal concentration for motor neuron survival: 1 µg/mL
